Data: the NIST ThermoML archive (doi:10.1016/j.jct.2013.08.031)
± gives the expanded uncertainty stated by the source.

Assay: mn = molality of the nth substance listed, in mol/kg
Conditions: 74.66 kPa, Liquid, Vibrating tube method

CCCC[N+](CCCC)(CCCC)CCCC.[Br-] [tetrabutylammonium bromide] + O
mass density [kg/m3]
Conditions | m1 = 0.01143 | m1 = 0.02179 | m1 = 0.02564 | m1 = 0.03767 | m1 = 0.0459 | m1 = 0.05855 | m1 = 0.0711 | m1 = 0.07968 | m1 = 0.09066 | m1 = 0.1003
298.15 K | 997.306 ± 0.11 | 997.542 ± 0.11 | 997.632 ± 0.11 | 997.89 ± 0.11 | 998.083 ± 0.11 | 998.37 ± 0.11 | 998.631 ± 0.11 | 998.818 ± 0.11 | 999.091 ± 0.11 | 999.267 ± 0.11
303.15 K | 995.897 ± 0.11 | 996.124 ± 0.11 | 996.207 ± 0.11 | 996.459 ± 0.11 | 996.642 ± 0.11 | 996.918 ± 0.11 | 997.168 ± 0.11 | 997.351 ± 0.11 | 997.608 ± 0.11 | 997.806 ± 0.11
308.15 K | 994.271 ± 0.11 | 994.493 ± 0.11 | 994.567 ± 0.11 | 994.819 ± 0.11 | 994.986 ± 0.11 | 995.247 ± 0.11 | 995.487 ± 0.11 | 995.662 ± 0.11 | 995.912 ± 0.11 | 996.121 ± 0.11

CCCC[N+](CCCC)(CC(C)C)CC(C)C.[Br-] [N-butyl-N,N-bis(2-methylpropyl)-1-butanaminium bromide] + O
mass density [kg/m3]
Conditions | m1 = 0.01065 | m1 = 0.01998 | m1 = 0.0287 | m1 = 0.03815 | m1 = 0.04991 | m1 = 0.05935 | m1 = 0.06884 | m1 = 0.08078 | m1 = 0.0922 | m1 = 0.1044
298.15 K | 997.571 ± 0.11 | 998.046 ± 0.11 | 998.493 ± 0.11 | 998.971 ± 0.11 | 999.575 ± 0.11 | 1000.05 ± 0.11 | 1000.54 ± 0.11 | 1001.16 ± 0.11 | 1001.72 ± 0.11 | 1002.35 ± 0.11
303.15 K | 996.173 ± 0.11 | 996.647 ± 0.11 | 997.094 ± 0.11 | 997.573 ± 0.11 | 998.175 ± 0.11 | 998.652 ± 0.11 | 999.131 ± 0.11 | 999.751 ± 0.11 | 1000.31 ± 0.11 | 1000.94 ± 0.11
308.15 K | 994.575 ± 0.11 | 995.047 ± 0.11 | 995.492 ± 0.11 | 995.975 ± 0.11 | 996.571 ± 0.11 | 997.048 ± 0.11 | 997.529 ± 0.11 | 998.152 ± 0.11 | 998.702 ± 0.11 | 999.327 ± 0.11
